Laboratory results: paper PMC8792282 (Redox Biology, 2022)
pIC50: −log10 of the molar value. Where two headings read alike, the source gives them in different places.

Tests used:
[1] = target: T1, Protein disulfide isomerase (PDI) (Homo sapiens, UniProt P07237); experiment: insulin reduction assay; format: biochemical
[2] = target: T1, Protein disulfide isomerase (PDI); experiment: insulin reduction assay; format: biochemical; remark: listed apart in the source

T1 sequence (P07237 18-508): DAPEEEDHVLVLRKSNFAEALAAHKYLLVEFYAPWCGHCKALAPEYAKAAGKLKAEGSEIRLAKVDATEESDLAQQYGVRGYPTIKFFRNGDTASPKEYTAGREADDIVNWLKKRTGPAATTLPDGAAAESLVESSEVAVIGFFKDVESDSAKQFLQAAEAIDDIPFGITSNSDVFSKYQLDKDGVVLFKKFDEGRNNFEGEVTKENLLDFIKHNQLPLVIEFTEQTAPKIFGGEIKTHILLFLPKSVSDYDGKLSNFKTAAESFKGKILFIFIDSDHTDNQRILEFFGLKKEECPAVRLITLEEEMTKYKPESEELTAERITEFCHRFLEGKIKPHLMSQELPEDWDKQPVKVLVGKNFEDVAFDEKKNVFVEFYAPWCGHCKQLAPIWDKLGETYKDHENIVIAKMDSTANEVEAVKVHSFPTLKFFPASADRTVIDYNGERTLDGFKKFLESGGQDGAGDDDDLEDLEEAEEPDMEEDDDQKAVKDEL

bepristat 2a was tested. Which pIC50 [1] did it give?
Its pIC50 is 6.15.

How did the pIC50 [2] turn out when `C[C@@H]1O[C@@H](OC[C@H]2O[C@@H](Oc3c(-c4ccc(O)c(O)c4)oc4cc(O)cc(O)c4c3=O)[C@H](O)[C@@H](O)[C@@H]2O)[C@H](O)[C@H](O)[C@H]1O` [rutin] was run?
The pIC50 was 5.35.
